This is an account of results in the OligoGym collection.

These antisense oligonucleotides have a phosphorothioate backbone; sugars and methylation of C are not fully specified.
Further: test concentration or dose not given here.

The target of one data set is TFRC. As to conditions: ASO.
As for GAAGCCCGCACTCACACT, the remaining target (mRNA or protein) (fraction of control) came out at 0.8.
Still for that read-out and setting: the same measure for CAGCCCCGCAGGATGAAG: at least 1; for ACTGACCAGCGACCTCTG: 0.58; for CACGAGGGTCGGTGTAGT: at least 1.
Still for that read-out and setting: the figure for CAACCCTAACTGTAGAAA is at least 1; for TTGGTTTTGTGACATTGG it is 0.92; for CGCTTTCCCGCTCCCCGT it is at least 1.
Consider AAACCTTGAAGTTGCTGG, for which the remaining target (mRNA or protein) (fraction of control) amounted to 0.93.
On the same count and under the same terms, the figure for TTTGGCTGACGGCTGTTT is 0.39; for CATTCTGAACTGCCACAC it is 0.62; for TACACCTTGGATAAACTG it is 0.93.
The same measure, in the same setting: the same measure for TTACAACCTTCAGCAGAG: at least 1.
Consider TTTAAGTCAAAAGGTCAA, for which the remaining target (mRNA or protein) (fraction of control) was at least 1.
Still for that read-out and setting: the same measure for TTCTTTCAGGAATGAGGA: 0.96; for TCATTTTATCCAGCAGAA: 0.79; for CTCTGGAGATTGTCTGGA: 0.76.
Same read-out and setting: the figure for CAGCAAGTTTCATCTCCA is 0.83.
Same read-out and setting: the figure for TCAACATACAACGCAAGA is 0.65; for ATATTGAGCCTGTTAGCA it is 0.95; for TTAATAACTCCAAAGATG it is at least 1.
On to GGAAAGGGAAAGCAGCAT, for which the remaining target (mRNA or protein) (fraction of control) is 0.95.
The same measure, in the same setting: the figure for TCCAGGTGTGTAAGGGTC is at least 1; for CTGTGCTGTCCAGTTTCT it is 0.9.
Turning to CCAATCATAAATCCAATC, the remaining target (mRNA or protein) (fraction of control) is at least 1.
In turn, ATTAAGTAGAGGACCTGG displayed a remaining target (mRNA or protein) (fraction of control) of 0.66.
On the same count and under the same terms, the figure for GCGGCTCCCTATGGCTGC is at least 1; for AGACCAGCCCTTAGGATT it is 0.56; for GGAAACTGAGTGTGATTG it is at least 1.
Still for that read-out and setting: the same measure for GTGACACATTCAAGTGAG: at least 1; for TATGATGGTTCACTCACG: at least 1; for CTGGCTCCTCCCTCACTG: 0.75.
Sequence CCACGAGCAGAATACAGC gave a remaining target (mRNA or protein) (fraction of control) of at least 1.
Same read-out and setting: the same measure for AGTCCAAGATAAAAGAGG: at least 1.
The sequence ATTCTTGCTTTCTGAGGT came in with a remaining target (mRNA or protein) (fraction of control) of at least 1.
Still for that read-out and setting: the figure for CAAAGTAAGCGAACCACT is at least 1.
Sequence CCCTGCTCTGACAATCAC returned a remaining target (mRNA or protein) (fraction of control) of 0.9.
Still for that read-out and setting: the same measure for CACAGCAATAGTCCCATA: 0.67; for CTCCGACAACTTTCTCTT: at least 1; for GGGTTTTATTAGCAGATG: at least 1.
AGATCCCTCACAAATGAA yielded a remaining target (mRNA or protein) (fraction of control) of at least 1.
As for TCAAGTTCTCCAGTAAAG, the remaining target (mRNA or protein) (fraction of control) is at least 1.
Still for that read-out and setting: the same measure for AGCTATGGGTATCACATT: at least 1.
Regarding GTCTCCAGCACTCCAACT, the remaining target (mRNA or protein) (fraction of control) was at least 1.
Same read-out and setting: the figure for ACGCCAGACTTTGCTGAG is 0.38; for TTGGCTTCTGGTCCCCTC it is 0.38.
In turn, GAACTAAATGGAGGCTTA registered a remaining target (mRNA or protein) (fraction of control) of at least 1.
Same read-out and setting: the same measure for CCGCCACAGCCCCTTCCC: 0.95; for CCTCCGTCCCGAGCCGCC: 0.43.
The sequence AAACAAGTCTACCGTTCT gave a remaining target (mRNA or protein) (fraction of control) of at least 1.
Consider TGGTGCTGGTGAAGTCTG, for which the remaining target (mRNA or protein) (fraction of control) is at least 1.
Take TTAACAACAACAGGAAAG: the remaining target (mRNA or protein) (fraction of control) was at least 1.
Consider CGGTTCCTGCCAGTCTCT, for which the remaining target (mRNA or protein) (fraction of control) stood at 0.54.
On the same count and under the same terms, the same measure for CTCATTGGCAAGAAAACA: 0.94.
Same read-out and setting: the figure for GGTTTCTGAACAGCGTTT is at least 1.
Still for that read-out and setting: the same measure for TTACCCACCCAATGCTTA: 0.89.

The target in a further data set is CD44. The settings on record: ASO.
With CGATCTGCGCCAGGCTCA, the remaining target (mRNA or protein) (fraction of control) amounted to 0.72.
The sequence TACACCTGCAAAGCGGCA came in with a remaining target (mRNA or protein) (fraction of control) of at least 1.
Take TGGTAGCAGGGATTCTGT: the remaining target (mRNA or protein) (fraction of control) was at least 1.
The same measure, in the same setting: the figure for CTGTCTTCGTCTGGGATG is at least 1; for ATCAGTAGGGTTGCTGGG it is at least 1; for GACTGTTGACTGCAATGC it is at least 1.
In the case of TCATGTCCACATTCTGCA, the remaining target (mRNA or protein) (fraction of control) was 0.81.
Same read-out and setting: the figure for TTGACTCCCATGTGAGTG is at least 1; for TGACTGCAATGCAAACTG it is at least 1.
Still for that read-out and setting: the same measure for GTGGAGCTGAAGCATTGA: at least 1; for GGTTGGCGATCAGGAATA: at least 1; for AACCCTGGGAAATGTCCT: at least 1.
For the sequence AAGGCATTGGGCAGGTCT, the remaining target (mRNA or protein) (fraction of control) came to 0.99.
The same measure, in the same setting: the same measure for TTGCTCCACCTTCTTGAC: at least 1; for AGTGGAAAGCAATGCCCA: at least 1; for ATAGCACACCCGAGGATG: at least 1.
On the same count and under the same terms, the figure for GCAAGAATCAAAGCCAAG is at least 1.
Sequence GCCTCCAAGTGGAACTGA returned a remaining target (mRNA or protein) (fraction of control) of 0.99.
On the same count and under the same terms, the figure for AGCCGCTGCTCACGTCAT is at least 1; for AAAGGTTGGCGATCAGGA it is at least 1.
With CGTTGAGTCCACTTGGCT, the remaining target (mRNA or protein) (fraction of control) is at least 1.
On the same count and under the same terms, the same measure for TCAAAGGACTGATCCAGG: at least 1.
In turn, CCACATGCCCTTCTATGA gave a remaining target (mRNA or protein) (fraction of control) of 0.9.
For the sequence TAAGTGTCCCAGCTCCCT, the remaining target (mRNA or protein) (fraction of control) is 0.98.
Same read-out and setting: the figure for CCCACACCTTCTTCGACT is 0.94; for ACGTGGAATACACCTGCA it is at least 1.
Same read-out and setting: the figure for GGCACGAGGCAGAGTCCC is at least 1.
For GTCTCCCAGAAGCATCTG, the remaining target (mRNA or protein) (fraction of control) was at least 1.
ACCAGGCCCTATTAACCC yielded a remaining target (mRNA or protein) (fraction of control) of at least 1.
On the same count and under the same terms, the figure for GGCTTTCTGTCCTCCACA is at least 1; for GTGTTGTTTGCTGCACAG it is at least 1; for CTGTGCTGTCGGTGATCC it is at least 1.
Same read-out and setting: the figure for TCCATCAAAGGCATTGGG is at least 1.
Same read-out and setting: the figure for GGTTATGTTTCCAACGGT is at least 1.
On to TCTTCTGCCCACACCTTC, for which the remaining target (mRNA or protein) (fraction of control) was at least 1.
For AAGCCAAGGCCAAGAGGG, the remaining target (mRNA or protein) (fraction of control) is at least 1.
GACTTGCTGGCCTCTCCG gave a remaining target (mRNA or protein) (fraction of control) of at least 1.
Consider CCATTTCCTGAGACTTGC, for which the remaining target (mRNA or protein) (fraction of control) was at least 1.
Turning to TAGCGGGTGCCATCACGG, the remaining target (mRNA or protein) (fraction of control) was at least 1.
AAATCCGATGCTCAGAGC returned a remaining target (mRNA or protein) (fraction of control) of at least 1.
On the same count and under the same terms, the figure for TGCAGAGGTCAGCGGCCT is at least 1; for GCGGCAGGTTATATTCAA it is at least 1; for CGTCCGAGAGATGCTGTA it is 0.52.
As to AGGTCTCAAATCCGATGC, the remaining target (mRNA or protein) (fraction of control) was at least 1.
Still for that read-out and setting: the same measure for TGGGAGGTGTTGTATGTG: at least 1.
Sequence AGCAATGCCCAGGGATTA came in with a remaining target (mRNA or protein) (fraction of control) of at least 1.
On to AGAGCTTTCTCCATCTGG, for which the remaining target (mRNA or protein) (fraction of control) is at least 1.
On the same count and under the same terms, the same measure for GTGGGCAAGGTGCTATTG: at least 1.
On the same count and under the same terms, the figure for TGCTATTGAAAGCCTTGC is at least 1; for GAAAGCCTTGCAGAGGTC it is 0.9; for GTCCTCCACAGCTCCATT it is at least 1.
For TTTGCTGCACAGATGGAG, the remaining target (mRNA or protein) (fraction of control) was at least 1.
Same read-out and setting: the same measure for CAACGGTTGTTTCTTTCC: at least 1; for TCCACTTGGCTTTCTGTC: at least 1; for TTTCCTCCCAGGGACCAG: at least 1.
Take ATCCAGGGACTGTCTTCG: the remaining target (mRNA or protein) (fraction of control) is at least 1.
The same measure, in the same setting: the figure for GCTGCTCCTTTCACTGGA is 0.9; for TCTTGGTCTCTGGTAGCA it is at least 1; for ACAGCTCCATTGCCACTG it is at least 1.
Same read-out and setting: the figure for CGGAGCGAACGGAGGGCG is at least 1; for CTTGTTCACCAAATGCAC it is at least 1; for AGCCATCCATAGCACACC it is 0.97.
In turn, AGATTCGCAATGAAACAA came in with a remaining target (mRNA or protein) (fraction of control) of at least 1.
On to GACGACTCCTTGTTCACC, for which the remaining target (mRNA or protein) (fraction of control) was at least 1.
